According to patent US8889662B2, “Method to alter sex ratios in avian offspring” (University of Georgia Research Foundation, Inc., priority 2009, dated 2014):

Tests used:
[1] = Example 1: plasma CORT radioimmunoassay after injection, zebra finches; type: in vivo, zebra finch (Taeniopygia guttata); conditions: female zebra finches
Procedure: This experiment was conducted to determine whether a single injection of CORT at the critical time of sex chromosome segregation is sufficient to skew offspring sex ratios towards females. Female zebra finches were monitored for signs of nest-building and egg-laying. Approximately 19 h following the appearance of the first egg (1 h before sex chromosome segregation), females received one of two treatments: (1) a high dose of CORT (20 ug in 50 ul peanut oil), or (2) a control treatment (50 ul peanut oil). Because oviposition and ovulation are nearly concurrent, ovulation of the second egg took place when the first egg was laid. Thus, the egg that would be affected by our treatment was the third egg in the sequence. Eggs were labeled as they were laid and were collected after 6 d of incubation for molecular sexing analysis as described above. The percentage of females producing male offspring in each group were calculated and compared using chi square analyses. Blood samples were taken from a subset of females 1 h and 2.5 h post injection to verify that the CORT injection did, in fact, elevate circulating maternal CORT concentrations. CORT was quantified using a standard radioimmunoassay and CORT concentrations were log transformed and analyzed using an analysis of variance (ANOVA).

[2] = system: zebra finch (Taeniopygia guttata); assay: Example 2: primary sex ratio after hormone injection five hours before ovulation, zebra finches; type: in vivo
Procedure: (§1) Zebra finch (Taeniopygia guttata) pairs obtained from a breeding colony maintained at The University of Georgia were housed in individual cages and provided feed and water ad libidumn. Birds were kept under a 14 hour (h) light (L):10 h dark (D) light schedule. Egg-laying was monitored daily and eggs marked to record sequence order. Females were injected intraperitoneally after the first or second egg of the clutch was laid with one of three treatments: 20 μg of CORT dissolved in 50 μl peanut oil and 10% ethanol (CORT), 20 μg of progesterone dissolved in […] and 10% ethanol (P), or 50 μl of control peanut oil (C). A fourth set of females received no injection treatment (UN). […] The follicle ovulating 5 hours after injection, was laid approximately 36 hours after injection (FIG. 3). Ovulating follicles exposed to treatments were laid as the 3rd or 4th egg in the sequence (3rd egg if treatment was administered on the day the 1st egg was laid and the 4th egg in the sequence if treatment was administered on the day the 2nd egg was laid). Eggs were allowed to incubate in the nest for 8-12 days prior to collection to allow sufficient embryonic development for DNA extraction and molecular sexing analyses. Occasionally these treatments disrupted the oviposition immediately following the injection. Females that delayed oviposition after treatment were excluded from analysis because it was not possible to determine whether the egg collected the following day was from the ovulation event that occurred immediately following injection or from a delayed oviposition of the follicle ovulated the day prior to injection. Females that delayed oviposition were allowed to complete the clutch after which the treatment was repeated during the next clutch. […] Only 1/10 females treated with progesterone laid successfully. For this reason, progesterone treatments were eliminated from further analyses.
Molecular Sexing. Genomic DNA was extracted from embryonic tissue using a standard salt extraction method (Lambert et al., 2000, Journal of Neuroscience Methods; 95:127-132). Portions of the W-linked avian CHD (CHD-W) on females and its non W-linked homologue (CHD-Z) were amplified using polymerase chain reaction (PCR) with primers P2 and P8 (Griffiths et al., 1998, Mol Ecol; 7:1071-1075). […] The presence of the W chromosome was determined through the visualization of two bands while males were identified when only one band was produced.
Twenty-one target embryos were successfully sexed from control females, 16 from non-injected females, and 18 from CORT treated females. […] Differences in the number of females that produced males was analyzed among treatment groups by performing a logistic regression in StatView (SAS Institute, Cary, N.C. USA) using sex as the response variable (male=1). […]

[3] = Example 2: plasma corticosterone radioimmunoassay after injection, zebra finches; type: in vivo, Zebra finch (Taeniopygia guttata); conditions: zebra finch, 20 ug
Procedure: Radioimmunoassays. […] Different individuals were sampled at each time point. Blood samples were also taken from a set of unmanipulated females at time intervals 20 minutes and 1 hour, during the same bleeding session. To ensure that measurements reflect corticosterone elevations associated with the injection and not the stress of handling, samples were taken from the brachial vein within 3 minutes of capture (Romero and Romero, 2002, Condor; 104:129-135; Wingfield et al., 1982, Condor; 84:399-409). Injections and sampling began at 2300 hours (5 hors prior to ovulation) to accurately measure the blood plasma levels of corticosterone and changes in corticosterone levels in response to injections during the approximate period that meiosis occurs. Based on studies done in other avian species, it is likely that the time period from injection to blood sampling is just prior to the natural diurnal CORT peak that occurs at the end of the dark period (Westerhof et al., 1994, Avian Diseases; 38:428-434; de Jong et al., 2001, Physiology and Behavior; 74:299-304). The procedures for extraction and radioimmunoassay of corticosterone from plasma were followed as described by (Wingfield and Farner, 1975, Steroids; 26:311-327) and (Mendonça et al., 1996, Horm Behav; 30:153-161) using a rabbit derived anti-corticosterone antibody (MP Biomedicals, Solon, Ohio USA, cat #07-120016).
Statistical Analysis. Plasma CORT concentrations were analyzed among treatment groups and time points using a two-way ANOVA, and individual treatment differences were analyzed using Fisher's PLSD. All hormone data were non-normally distributed and were thus log transformed for statistical analyses.

[4] = system: zebra finch (Taeniopygia guttata); assay: Example 2: disruption of ovulation, oviposition and embryo development after injection, zebra finches; type: in vivo; conditions: 20 ug injection, relative to control and uninjected groups
Procedure: as §1

With `C[C@]12C[C@H](O)[C@H]3[C@@H](CCC4=CC(=O)CC[C@@]43C)[C@@H]1CC[C@@H]2C(=O)CO` [corticosterone] the “circulating CORT concentrations compared to controls” value ([1]; 20 ug CORT in 50 ul peanut oil, within 1 h of injection, p<0.0001) was “significantly increased circulating CORT concentrations”, the “circulating CORT concentrations compared to controls” value ([1]; 20 ug CORT, 2.5 h post-injection, p=0.08) was “remained higher in the CORT treated females 2.5 h post-injection, but not significantly so” and the “males produced (primary sex ratio)” value ([2]; 20 ug intraperitoneally five hours before ovulation, 3rd or 4th egg, control injected 61.9%, uninjected 37.5%) was 72%. For the same molecule, the “male embryos produced compared to non-manipulated females (FIG. 5 legend)” value ([2]; 20 ug, no significant difference from control injected females) was “produced significantly more male embryos”, the Proportion male ([2]; eggs laid before treatment by the same treatment group (baseline)) was 0.4375 and the Proportion male ([2]; target eggs (Treatment), 20 ug) was 0.72. The “plasma corticosterone levels compared to non-injected birds” value ([3]; 20 minutes after injection, p<0.0001) was “raised corticosterone levels significantly”, the “levels of corticosterone post-injection” value ([3]; 20 minutes, 1 hour and 2.5 hours post-injection (summary statement)) was “significantly elevated levels of corticosterone” and the “plasma corticosterone levels compared to non-injected birds” value ([3]; 1 hour post-injection, p=0.0002) was “remained significantly elevated”. For the same molecule, the “plasma corticosterone levels, CORT treated versus control treated females” value ([3]; 2.5 hours after injection, p=0.0789) was “similar”, the “plasma corticosterone levels compared to unmanipulated females” value ([3]; 2.5 hr post-injection versus unmanipulated birds sampled at 1 h, p=0.0401) was “significantly higher corticosterone levels” and the “plasma corticosterone levels (FIG. 4 legend)” value ([3]; min and one hour after injection) was “significantly raised plasma corticosterone levels”. The “effect on oviposition, ovulation or visible development” value ([4]; listed as CORT) was “not more likely to occur” and the “effect on oviposition, ovulation or visible development” value ([4]; listed as Corticosterone) was “did not adversely affect oviposition or ovulation”.
